# From patent publication US20250163119A1, “COMPOUNDS FOR THE TREATMENT OF DIABETES OR OBESITY” (Eli Lilly and Company, priority 2023, published 2025)
# *1 amine or outer side, *2 acyl side, *3 side chain or, on linkers, in order; H or OH if unused. Where a SMILES comes first, the peptide text is derived from it. Side-chain parts run from the residue outwards. [ ]: non-standard residue; d: D form. The star is where a group is joined. C20 diacid = O=C(O)CCCCCCCCCCCCCCCCCCC(=O)*; γGlu = O=C(O)[C@H](CCC(=O)[*:2])N[*:1]; NMeI = CC[C@H](C)[C@H](NC)C(=O)O; AEEA = NCCOCCOCC(=O)O
# Assay: In vivo Diet Induced Obesity (DIO) model, chronic dose administration
# Parameters: species or system C57BL6 mice
# Details: DIO mice; 30 nmol/kg s.c.; pooled data from four studies; mean
# Description: The DIO model represents a pre-diabetic state that is obese. These animals, although not diabetic, display insulin resistance, dyslipidemia, and hepatic steatosis, all characteristics of metabolic syndrome, after being placed on a high fat (60% Kcal from fat) diet for 12 weeks (Surwit R S et al., Diet-induced type II diabetes in C57BL/6J mice. Diabetes 37(9): 1163-7 (1988)). Assessment of body weight change from start of study, fat mass change from start of study, lean mass change from start of study, and fasting glucose or glucose change from vehicle in same study substantially as set forth below. In the case of SEQ ID NO:55 combined with SEQ ID NO:25, tibialis anterior muscle weight at the end of the study is also reported as a measure of effect on muscle weight.
# Male C57BL6 mice 22-24 weeks old (on high fat diet since 6 weeks of age, Jackson Laboratories 3800050; Bar Harbor, ME) are housed 1 per cage and maintained on D12492 chow (60% lard high fat diet: Research diets New Brunswick NJ) for 2 weeks in the vivarium and on a normal light cycle prior to experiment start. Animals were randomized by body weight to treatment groups using block randomization. On day 1 of experiment animals and food were weighed and recorded. Animals were separated in to two equal groups and started on separate days (data combined) to simplify the logistics of the study. Animals are given a single subcutaneous injection (s.c.) of the indicated treatment in 40 mM Tris HCl pH8.0+50 mM D-mannitol+0.02% polysorbate 80 on days 1(start), 4, 7, 10, and 13 of experiment at a volume of 10 ml/kg. […]
# From study day 1 to study day 14 the animals were weighed daily prior to dose administration. […] The weight was recorded.
# On Study Day 14, the animals were fasted overnight (approximately 16-18 hours) by placing them in a clean cage with a clean wire rack without food but allowed access to water, and on day 15 animals were subjected to fasting blood glucose measurement as follows; the tail of the animal was resected and a blood samples was collected and blood glucose was measured using an Accu-Chek Aviva glucose meter (Roche; Indianapolis, IN). Statistical significance ([…] vs. 0 dose; one way ANOVA Dunnett's post hoc) was calculated using GraphPad Prism software (La Jolla, Ca).
# On study day 1 and study day 14 body composition was analyzed using Quantitative Nuclear Magnetic Resonance EchoMRI analyzer (EMR-166-s, EchoMRI; Houston Tx). […] Change in mass is calculated by subtraction of […].
# On study day 15, following tail bleed for blood glucose, animals were sacrificed by C02 asphyxiation and the right tibialis anterior muscle was dissected. […] Weight was recorded and, in the case of relative weight, Tibialis anterior weight in milligrams was divided by body weight in grams. […]
compound,measurement,value
CC[C@H](C)[C@H](NC)C(=O)N[C@H](C(=O)N[C@@H](CC(C)C)C(=O)N[C@@H](CO)C(=O)N[C@@H](CC(C)C)C(=O)N[C@@H](CC(=O)O)C(=O)N[C@H](C(=O)N1CCC[C@H]1C(=O)N[C@H](C(=O)NCC(=O)N[C@@H](CC(C)C)C(=O)N[C@@H](CC(C)C)C(=O)N[C@@H](CCC(N)=O)C(=O)N[C@H](C(=O)N[C@@H](CC(C)C)C(=O)N[C@@H](CC(C)C)C(=O)N[C@@H](CCC(=O)O)C(=O)N[C@@H](CCC(N)=O)C(=O)N[C@@H](CCC(=O)O)C(=O)N[C@@H](CCCCN)C(=O)N[C@@H](CCC(N)=O)C(=O)N[C@@H](CCC(=O)O)C(=O)N[C@@H](CCCCN)C(=O)N[C@@H](CCC(=O)O)C(=O)N[C@@H](CCCCN)C(=O)N[C@@H](CCC(N)=O)C(=O)N[C@@H](CCC(N)=O)C(=O)N[C@@H](C)C(=O)N[C@@H](CCCCNC(=O)COCCOCCNC(=O)COCCOCCNC(=O)CC[C@H](NC(=O)CC[C@H](NC(=O)CCCCCCCCCCCCCCCCCCC(=O)O)C(=O)O)C(=O)O)C(=O)N[C@H](C(=O)N[C@@H](CC(N)=O)C(=O)N[C@@H](C)C(=O)N[C@@H](CCC(N)=O)C(=O)N[C@H](C(=O)N[C@@H](CC(C)C)C(=O)N[C@@H](C)C(=O)N[C@@H](CCC(N)=O)C(=O)N[C@H](C(N)=O)C(C)C)[C@@H](C)CC)[C@@H](C)O)[C@@H](C)CC)[C@@H](C)CC)C(C)C)C(C)C [SEQ ID NO: 54] (H-[NMeI]VLSLDVPIGLLQILLEQEKQEKEKQQAK([AEEA-AEEA-γGlu-γGlu-C20 diacid])TNAQILAQV-NH2),Fat mass change,-4.05 g
same,body weight change,-3.75 g
same,fasting blood glucose (% reduction from vehicle),37.01%
same,lean mass change,0.60 g
